Measured values taken from patent US12157730B2, “Heteroaryl derivative, method for producing same, and pharmaceutical composition comprising same as effective component” (VORONOI INC., priority 2019, dated 2024).

Legend:
Format in all cases: cell-based
[1] = tested on: Ba/F3 cell naive; assay: Ba/F3 cell proliferation suppression, naive; settings: Mus musculus, BaF3; 72 hours after treatment, CellTiter-Glo
Method: (§1) The following experiment was carried out to evaluate the suppression activity of the compounds according to the present invention against proliferation of Ba/F3 and lung cancer cells which express EGFR mutations.
(§2) Of the cancer cell lines expressing the EGFR gene, A549 was cultured after adding 10% FBS (HyClone) to DMEM (Invitrogen), and RPMI-1640 (Invitrogen) with 10% FBS was used for the other cancer cells. For the Ba/F3 cells, RPMI-1640 with 10% FBS and 5 ng/ml IL-3 (R&D Systems) was used. The transduced Ba/F3 cells were cultured by adding 1 ug/ml puromycin (Invitrogen) to the same medium.
(§3) 24 hours before treatment with the compounds, 3000 to 5000 cells were distributed into each well of a white clear bottom 96 well plate (Corning). The compounds were diluted in dimethylsulfoxide (dilution ratio 3:1; 12 concentrations total) and injected 0.5 ul each for a final concentration of 0.3 nM to 50 um. As for measurement of live cells, 72 hours after treatment with the compounds, a CellTiter-Glo luminescent cell-viability reagent (Promega) was used to store the cells at room temperature for 10 minutes, followed by measurement of luminescence using a reader (SynergyNeo, Biotek). Each test was repeated three times.
(§4) The result was calculated as a cell growth ratio (%) compared to a control. The program GraphPad Prism version 5.0 was used to draw the graphs and calculate the GI50 values.

[2] = biological target: T1, Ba/F3 cell EGFR Exon20 ins NPH (Homo sapiens, UniProt P00533, INS773NPH); assay: Ba/F3 cell proliferation suppression, EGFR Exon20 ins NPH; settings: for Ba/F3 (NPH) Activity: GI50 class, Ba/F3 cell line with NPH inserted at Exon20 of EGFR, 72 hours
T1 construct: expressed in transfected cells; host or cells: Ba/F3
Summary of the method: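 Cells (3000–5000/well) plated 24 h before compound, 12-point 3-fold dilutions at 0.3 nM to 50 um final; Ba/F3 lines grown with 5 ng/ml IL-3. Viability by CellTiter-Glo luminescence after 72 h, growth ratio vs control, GI50 from curves; triplicate.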

[3] = biological target: T2, Ba/F3 cell EGFR L858R/T790M (Homo sapiens, UniProt P00533, L858R/T790M); assay: Ba/F3 cell proliferation suppression, EGFR L858R/T790M; settings: 72 hours after treatment, CellTiter-Glo
T2 construct: expressed in transfected cells; host or cells: Ba/F3
Method: as §1, §2, §3, §4

Row | Compound | Ba/F3 (NPH) Activity [2] | further results
1 | C=CC(=O)Nc1cc(Nc2cc(N3OCC[C@@H]3c3cc(F)cc(F)c3)ncn2)c(OC)cc1N1CCC(N2CCC(N(C)C)CC2)CC1 [Example 253] | A (GI50 < 50 nM) | GI50 [1]: 0.5 to 5 µM; GI50 ([2]; 72 hours after treatment, CellTiter-Glo): < 0.05 µM; GI50 [3]: < 0.05 µM
2 | C=CC(=O)Nc1cc(Nc2cc(N3OCC[C@@H]3c3ccc(F)c(Cl)c3)ncn2)c(OC)cc1N1CCC(N2CCC(N(C)C)CC2)CC1 [compound 768, N-(5-((6-((R)-3-(3-chloro-4-fluorophenyl)isoxazolidine-2-yl)pyrimidine-4-yl)amino)-2-(4-(dimethylamino)-[1,4'-bipiperidine]-1'-yl)-4-methoxyphenyl) acrylamide] | A (GI50 < 50 nM) | –
3 | C=CC(=O)Nc1cc(Nc2cc(N3OCC[C@@H]3c3ccc(Cl)cc3F)ncn2)c(OC)cc1N1CCC(N2CCN(C(C)C)CC2)CC1 [compound 408, N-(5-((6-((R)-3-(4-chloro-2-fluorophenyl)isoxazolidine-2-yl)pyrimidine-4-yl)amino)-2-(4-(4-isopropylpiperazine-1-yl)piperidine-1-yl)-4-methoxyphenyl) acrylamide] | A (GI50 < 50 nM) | –
4 | C=CC(=O)Nc1cc(Nc2cc(N3OCC[C@@H]3c3cccc(C#N)c3)ncn2)c(OC)cc1N1CCC(N2CCN(C(C)=O)CC2)CC1 [compound 434, N-(2-(4-(4-acetylpiperazine-1-yl)piperidine-1-yl)-5-((6-((R)-3-(3-cyanophenyl)isoxazolidine-2-yl)pyrimidine-4-yl)amino)-4-methoxyphenyl) acrylamide] | A (GI50 < 50 nM) | –
5 | C=CC(=O)Nc1cc(Nc2cc(N3OCC[C@@H]3Cc3ccccc3)ncn2)c(OC)cc1N1CCN(CCN(C)C)CC1 [compound 961, N-(5-((6-((S)-3-benzylisoxazolidine-2-yl)pyrimidine-4-yl)amino)-2-(4-(2-(dimethylamino)ethyl)piperazine-1-yl)-4-methoxyphenyl) acrylamide] | A (GI50 < 50 nM) | –
6 | C=CC(=O)Nc1cc(Nc2cc(N3OCC[C@@H]3c3cc(F)ccc3F)ncn2)c(OC)cc1-n1ccnc1C [compound 330, N-(5-((6-((R)-3-(2,5-difluorophenyl)isoxazolidine-2-yl)pyrimidine-4-yl)amino)-4-methoxy-2-(2-methyl-1H-imidazole-1-yl)phenyl)acrylamide] | A (GI50 < 50 nM) | –
7 | C=CC(=O)Nc1cc(Nc2cc(N3OCC[C@@H]3c3ccc(Cl)c(F)c3)ncn2)c(OC)cc1N1C[C@@H]2C[C@H]1CO2 [compound 862, N-(2-((1S,4S)-2-oxa-5-azabicyclo [2.2.1]heptane-5-yl)-5-((6-((R)-3-(4-chloro-3-fluorophenyl)isoxazolidine-2-yl)pyrimidine-4-yl)amino)-4-methoxyphenyl) acrylamide] | A (GI50 < 50 nM) | –
8 | N-(5-((6-((R)-3-(4- chloro-3-fluorophenyl) isoxazolidine-2-yl) pyrimidine-4-yl)amino)- 4-methoxy-2-((R)-3- morpholinopyrolidine- 1-yl)phenyl)acrylamide [compound 419] | A (GI50 < 50 nM) | –
9 | C=CC(=O)Nc1cc(Nc2cc(N3OCC[C@@H]3c3ccc(Cl)c(Cl)c3)ncn2)c(OC)cc1N1CCC(N2CCN(C(C)C)CC2)CC1 [compound 689, N-(5-((6-((R)-3-(3,4-dichlorophenyl)isoxazolidine-2-yl)pyrimidine-4-yl)amino)-2-(4-(4-isopropylpiperazine-1-yl)piperidine-1-yl)-4-methoxyphenyl) acrylamide] | B (50 nM ≤ GI50 < 500 nM) | –
10 | C=CC(=O)Nc1cc(Nc2cc(N3OCC[C@@H]3c3ccc(F)c(F)c3F)ncn2)c(OC)cc1N1CCC(N2CCOCC2)CC1 [compound 621, N-(4-methoxy-2-(4-morpholinopiperidine-1-yl)-5-((6-((R)-3-(2,3,4-trifluorophenyl)isoxazolidine-2-yl)pyrimidine-4-yl)amino)phenyl)acrylamide] | A (GI50 < 50 nM) | –
11 | C=CC(=O)Nc1cc(Nc2cc(N3OCC[C@H]3c3c(F)cccc3F)ncn2)c(OC)cc1N(C)CCN(C)C [compound 306, N-(5-((6-((S)-3-(2,6-difluorophenyl)isoxazolidine-2-yl)pyrimidine-4-yl)amino)-2-((2-(dimethylamino)ethyl)(methyl)amino)-4-methoxyphenyl) acrylamide] | B (50 nM ≤ GI50 < 500 nM) | –
12 | C=CC(=O)Nc1cc(Nc2cc(N3OCC[C@@H]3c3c(F)ccc(F)c3F)ncn2)c(OC)cc1N1CCC(N2CCOCC2)CC1 [compound 632, N-(4-methoxy-2-(4-morpholinopiperidine-1-yl)-5-((6-((R)-3-(2,3,6-trifluorophenyl)isoxazolidine-2-yl)pyrimidine-4-yl)amino)phenyl)acrylamide] | A (GI50 < 50 nM) | –
13 | C=CC(=O)Nc1cc(Nc2cc(N3OCC[C@@H]3c3cc(F)cc(F)c3)ncn2)c(OC)cc1N1CCN(C2CC2)CC1 [compound 438, N-(2-(4-cyclopropylpiperazine-1-yl)-5-((6-((R)-3-(3,5-difluorophenyl)isoxazolidine-2-yl)pyrimidine-4-yl)amino)-4-methoxyphenyl) acrylamide] | A (GI50 < 50 nM) | –
14 | C=CC(=O)Nc1cc(Nc2cc(N3OCC[C@@H]3c3cc(F)cc(Cl)c3)ncn2)c(OC)cc1N1CCC(N2CCN(C3CC3)C[C@@H]2C)CC1 [Example 160, N-(5-((6-((R)-3-(3-chloro-5-fluorophenyl)isoxazolidine-2-yl)pyrimidine-4-yl)amino)-2-(4-((S)-4-cyclopropyl-2-methylpiperazine-1-yl)piperidine-1-yl)-4-methoxyphenyl) acrylamide] | A (GI50 < 50 nM) | –
15 | C=CC(=O)Nc1cc(Nc2cc(N3OCC[C@@H]3c3cccc4ccccc34)ncn2)c(OC)cc1N1CCC(N2CCN(C3CC3)CC2)CC1 [Example 146, N-(2-(4-(4-cyclopropylpiperazine-1-yl)piperidine-1-yl)-4-methoxy-5-((6-((R)-3-(naphthalene-1-yl)isoxazolidine-2-yl)pyrimidine-4-yl)amino)phenyl)acrylamide] | B (50 nM ≤ GI50 < 500 nM) | –
16 | C=CC(=O)Nc1cc(Nc2cc(N3OCC[C@@H]3Cc3cccc(F)c3C)ncn2)c(OC)cc1N1CCC(N2C[C@@H]3C[C@H]2CO3)CC1 [compound 1040, N-(2-(4-((1S,4S)-2-oxa-5-azabicyclo [2.2.1]heptane-5-yl)piperidine-1-yl)-5-((6-((S)-3-(3-fluoro-2-methylbenzyl)isoxazolidine-2-yl)pyrimidine-4-yl)amino)-4-methoxyphenyl) acrylamide] | A (GI50 < 50 nM) | –
17 | C=CC(=O)Nc1cc(Nc2cc(N3OCC[C@@H]3c3cccc(C)c3F)ncn2)c(OC)cc1N1CCC(N2CCN(CC)CC2)CC1 [compound 318, N-(2-(4-(4-ethylpiperazine-1-yl)piperidine-1-yl)-5-((6-((R)-3-(2-fluoro-3-methylphenyl)isoxazolidine-2-yl)pyrimidine-4-yl)amino)-4-methoxyphenyl) acrylamide] | A (GI50 < 50 nM) | –
18 | C=CC(=O)Nc1cc(Nc2cc(N3OCC[C@H]3Cc3ccccc3)ncn2)c(OC)cc1N1CCN(CC2CC2)CC1 [compound 967, N-(5-((6-((R)-3-benzylisoxazolidine-2-yl)pyrimidine-4-yl)amino)-2-(4-(cyclopropylmethyl)piperazine-1-yl)-4-methoxyphenyl) acrylamide] | C (500 nM ≤ GI50 < 5000 nM) | –
19 | C=CC(=O)Nc1cc(Nc2cc(N3OCC[C@@H]3Cc3cccc(F)c3)ncn2)c(OC)cc1N1CCC(N2CCN(C3CC3)CC2)CC1 [compound 997, N-(2-(4-(4-cyclopropylpiperazine-1-yl)piperidine-1-yl)-5-((6-((S)-3-(3-fluorobenzyl)isoxazolidine-2-yl)pyrimidine-4-yl)amino)-4-methoxyphenyl) acrylamide] | A (GI50 < 50 nM) | –
20 | C=CC(=O)Nc1cc(Nc2cc(N3OCC[C@@H]3c3cccc(Cl)c3F)ncn2)c(OC)cc1N1CCC(N2CCN(C3CC3)C[C@H]2C)CC1 [Example 149, N-(5-((6-((R)-3-(3-chloro-2-fluorophenyl)isoxazolidine-2-yl)pyrimidine-4-yl)amino)-2-(4-((R)-4-cyclopropyl-2-methylpiperazine-1-yl)piperidine-1-yl)-4-methoxyphenyl) acrylamide] | A (GI50 < 50 nM) | –
21 | C=CC(=O)Nc1cc(Nc2cc(N3OCC[C@@H]3c3ccc(F)cc3F)ncn2)c(OC)cc1N1CCC(N2CCOCC2)CC1 [compound 378, N-(5-((6-((R)-3-(2,4-difluorophenyl)isoxazolidine-2-yl)pyrimidine-4-yl)amino)-4-methoxy-2-(4-morpholinopiperidine-1-yl)phenyl)acrylamide] | A (GI50 < 50 nM) | –
